# Laboratory results reported in patent publication US20140213513A1 (Sanofi, priority 2012, published 2014).
# *1 amine or outer side, *2 acyl side, *3 side chain or, on linkers, in order; H or OH if unused. Where a SMILES comes first, the peptide text is derived from it. Side-chain parts run from the residue outwards. [ ]: non-standard residue; d: D form. The star is where a group is joined. γGlu = O=C(O)[C@H](CCC(=O)[*:2])N[*:1]; Stearoyl = CCCCCCCCCCCCCCCCCC(=O)*; Palmitoyl = CCCCCCCCCCCCCCCC(=O)*; Aib = CC(C)(N)C(=O)O
# Experiments:
# Assay type in all cases: cell-based
# Settings in all cases: Table 7; cAMP formation
# [1] = molecular target: T1, human GIP receptor (hGIP R) (Homo sapiens, UniProt P48546); assay: cAMP response of HEK-293 cells stably expressing human GIP receptor (HTRF)
# T1 construct: expressed in transfected cells
# T1 sequence (P48546 22-466): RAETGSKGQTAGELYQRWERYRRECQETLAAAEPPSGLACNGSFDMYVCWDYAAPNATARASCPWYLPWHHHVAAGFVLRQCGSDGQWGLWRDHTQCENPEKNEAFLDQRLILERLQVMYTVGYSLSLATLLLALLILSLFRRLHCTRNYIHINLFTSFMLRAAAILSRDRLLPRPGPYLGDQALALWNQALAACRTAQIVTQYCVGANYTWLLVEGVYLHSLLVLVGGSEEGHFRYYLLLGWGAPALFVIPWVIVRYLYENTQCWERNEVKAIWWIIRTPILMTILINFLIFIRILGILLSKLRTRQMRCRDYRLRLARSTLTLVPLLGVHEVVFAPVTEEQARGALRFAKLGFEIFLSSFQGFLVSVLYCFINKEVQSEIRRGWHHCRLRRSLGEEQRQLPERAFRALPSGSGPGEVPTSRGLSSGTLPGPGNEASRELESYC
# Description: (§1) cAMP content of cells was determined using a kit from Cisbio Corp. (cat. no. 62AM4PEC) based on HTRF (Homogenous Time Resolved Fluorescence). For preparation, cells were split into T175 culture flasks and grown overnight to near confluency in medium (DMEM/10% FBS). Medium was then removed and cells washed with PBS lacking calcium and magnesium, followed by proteinase treatment with accutase (Sigma-Aldrich cat. no. A6964). Detached cells were washed and resuspended in assay buffer (1×HBSS; 20 mM HEPES, 0.1% BSA, 2 mM IBMX) and cellular density determined. They were then diluted to 400000 cells/ml and 25 μl-aliquots dispensed into the wells of 96-well plates. For measurement, 25 μl of test compound in assay buffer was added to the wells, followed by incubation for 30 minutes at room temperature.
# [2] = molecular target: T2, human glucagon receptor (hGLUC R) (Homo sapiens, UniProt P47871); assay: cAMP response of HEK-293 cells stably expressing human glucagon receptor (HTRF)
# T2 construct: expressed in transfected cells
# T2 sequence (P47871 26-477): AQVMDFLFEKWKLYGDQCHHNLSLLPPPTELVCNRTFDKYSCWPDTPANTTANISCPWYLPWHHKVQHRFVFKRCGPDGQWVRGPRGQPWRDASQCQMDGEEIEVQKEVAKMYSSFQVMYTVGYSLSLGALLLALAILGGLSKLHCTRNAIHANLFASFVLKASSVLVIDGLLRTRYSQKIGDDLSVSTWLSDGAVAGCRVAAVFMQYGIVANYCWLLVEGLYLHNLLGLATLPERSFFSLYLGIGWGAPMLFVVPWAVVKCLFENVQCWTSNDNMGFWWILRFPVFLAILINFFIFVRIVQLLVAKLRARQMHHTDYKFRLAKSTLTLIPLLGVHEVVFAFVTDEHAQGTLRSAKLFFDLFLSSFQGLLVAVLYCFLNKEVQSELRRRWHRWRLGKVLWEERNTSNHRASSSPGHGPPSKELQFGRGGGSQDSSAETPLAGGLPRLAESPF
# Description: as §1
# [3] = molecular target: T3, human GLP-1 receptor (hGLP-1 R) (Homo sapiens, UniProt P43220); assay: cAMP response of HEK-293 cells stably expressing human GLP-1 receptor (HTRF)
# T3 construct: expressed in transfected cells
# T3 sequence (P43220 24-463): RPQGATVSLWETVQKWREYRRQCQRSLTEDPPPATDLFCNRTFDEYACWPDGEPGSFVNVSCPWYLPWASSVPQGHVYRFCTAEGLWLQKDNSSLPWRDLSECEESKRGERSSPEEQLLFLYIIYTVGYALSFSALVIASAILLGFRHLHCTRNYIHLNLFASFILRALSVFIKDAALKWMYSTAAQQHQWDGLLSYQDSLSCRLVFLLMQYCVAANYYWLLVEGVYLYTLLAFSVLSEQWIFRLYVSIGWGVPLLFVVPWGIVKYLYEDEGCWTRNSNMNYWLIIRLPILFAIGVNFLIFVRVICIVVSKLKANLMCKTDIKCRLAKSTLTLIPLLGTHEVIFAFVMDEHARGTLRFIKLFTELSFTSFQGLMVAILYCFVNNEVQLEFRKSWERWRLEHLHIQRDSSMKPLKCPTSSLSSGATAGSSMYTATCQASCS
# Description: as §1
SMILES,EC50 [1],EC50 [2],EC50 [3]
"CCCCCCCCCCCCCCCC(=O)N[C@@H](CCC(=O)NCCCC[C@H](NC(=O)[C@H](CCC(N)=O)NC(=O)[C@H](CCCCN)NC(=O)[C@H](CO)NC(=O)[C@H](CC(C)C)NC(=O)[C@H](CC(=O)O)NC(=O)[C@H](CO)NC(=O)[C@@H](NC(=O)[C@H](Cc1ccccc1)NC(=O)[C@@H](NC(=O)CNC(=O)[C@H](CCC(N)=O)NC(=O)C(C)(C)NC(=O)[C@@H](N)Cc1ccc(O)cc1)[C@@H](C)O)[C@@H](C)O)C(=O)N[C@@H](CC(=O)O)C(=O)N[C@@H](CO)C(=O)N[C@@H](CCCCN)C(=O)N[C@@H](C)C(=O)N[C@@H](C)C(=O)N[C@@H](CCC(N)=O)C(=O)N[C@@H](CC(=O)O)C(=O)N[C@@H](Cc1ccccc1)C(=O)N[C@H](C(=O)N[C@@H](CCC(=O)O)C(=O)N[C@@H](Cc1c[nH]c2ccccc12)C(=O)N[C@@H](CC(C)C)C(=O)N[C@@H](CCCCN)C(=O)N[C@@H](C)C(=O)NCC(=O)NCC(=O)N1CCC[C@H]1C(=O)N[C@@H](CO)C(=O)N[C@@H](CO)C(=O)NCC(=O)N[C@@H](C)C(=O)N1CCC[C@H]1C(=O)N1CCC[C@H]1C(=O)N1CCC[C@H]1C(=O)N[C@@H](CO)C(N)=O)[C@@H](C)CC)C(=O)O [SEQ ID NO: 61, Y-Aib-Q-G-T-F-T-S-D-L-S-K-Q-K(yE-x53)-DSKAAQDFIEWLKAGGPSSGAPPPS-NH2] (H-Y[Aib]QGTFTSDLSKQK([γGlu-Palmitoyl])DSKAAQDFIEWLKAGGPSSGAPPPS-NH2)",0.0214 nM,0.0061 nM,0.0024 nM
"CCCCCCCCCCCCCCCC(=O)N[C@@H](CCC(=O)NCCCC[C@H](NC(=O)[C@H](CCC(N)=O)NC(=O)[C@@H](NC(=O)[C@H](CO)NC(=O)[C@H](CC(C)C)NC(=O)[C@H](CC(=O)O)NC(=O)[C@H](CO)NC(=O)[C@@H](NC(=O)[C@H](Cc1ccccc1)NC(=O)[C@@H](NC(=O)CNC(=O)[C@H](CCC(N)=O)NC(=O)C(C)(C)NC(=O)[C@@H](N)Cc1ccc(O)cc1)[C@@H](C)O)[C@@H](C)O)[C@@H](C)CC)C(=O)N[C@@H](CC(=O)O)C(=O)N[C@@H](CO)C(=O)N[C@@H](CCC(=O)O)C(=O)N[C@@H](C)C(=O)N[C@@H](C)C(=O)N[C@@H](CCC(N)=O)C(=O)N[C@@H](CC(=O)O)C(=O)N[C@@H](Cc1ccccc1)C(=O)N[C@H](C(=O)N[C@@H](CCC(=O)O)C(=O)N[C@@H](Cc1c[nH]c2ccccc12)C(=O)N[C@@H](CC(C)C)C(=O)N[C@@H](CCCCN)C(=O)N[C@@H](C)C(=O)NCC(=O)NCC(=O)N1CCC[C@H]1C(=O)N[C@@H](CO)C(=O)N[C@@H](CO)C(=O)NCC(=O)N[C@@H](C)C(=O)N1CCC[C@H]1C(=O)N1CCC[C@H]1C(=O)N1CCC[C@H]1C(=O)N[C@@H](CO)C(N)=O)[C@@H](C)CC)C(=O)O [SEQ ID NO: 48, Y-Aib-Q-G-T-F-T-S-D-L-S-I-Q-K(yE-x53)-DSEAAQDFIEWLKAGGPSSGAPPPS-NH2] (H-Y[Aib]QGTFTSDLSIQK([γGlu-Palmitoyl])DSEAAQDFIEWLKAGGPSSGAPPPS-NH2)",0.0158 nM,0.478 nM,0.0101 nM
"CCCCCCCCCCCCCCCC(=O)N[C@@H](CCC(=O)NCCCC[C@H](NC(=O)[C@H](CCC(N)=O)NC(=O)[C@@H](NC(=O)[C@H](CO)NC(=O)[C@H](CC(C)C)NC(=O)[C@H](CC(=O)O)NC(=O)[C@H](CO)NC(=O)[C@@H](NC(=O)[C@H](Cc1ccccc1)NC(=O)[C@@H](NC(=O)CNC(=O)[C@H](CCC(N)=O)NC(=O)C(C)(C)NC(=O)[C@@H](N)Cc1ccc(O)cc1)[C@@H](C)O)[C@@H](C)O)[C@@H](C)CC)C(=O)N[C@@H](CCC(=O)O)C(=O)N[C@@H](CCCCN)C(=O)N[C@@H](CCCNC(=N)N)C(=O)N[C@@H](C)C(=O)N[C@@H](C)C(=O)NC(C)(C)C(=O)N[C@@H](Cc1ccc(O)cc1)C(=O)N[C@@H](Cc1ccccc1)C(=O)N[C@H](C(=O)N[C@@H](CCC(=O)O)C(=O)N[C@@H](Cc1c[nH]c2ccccc12)C(=O)N[C@@H](CC(C)C)C(=O)N[C@@H](CCCCN)C(=O)N[C@@H](CC(N)=O)C(=O)N[C@H](C(=O)NCC(=O)N1CCC[C@H]1C(=O)N[C@@H](CO)C(=O)N[C@@H](CO)C(=O)NCC(=O)N[C@@H](C)C(=O)N1CCC[C@H]1C(=O)N1CCC[C@H]1C(=O)N1CCC[C@H]1C(=O)N[C@@H](CO)C(N)=O)[C@@H](C)O)[C@@H](C)CC)C(=O)O [SEQ ID NO: 23, Y-Aib-Q-G-T-F-T-S-D-L-S-I-Q-K(yE-x53)-E-K-R-A-A-Aib-Y-F-I-E-W-L-K-N-T-G-P-S-S-G-A-P-P-P-S-NH2] (H-Y[Aib]QGTFTSDLSIQK([γGlu-Palmitoyl])EKRAA[Aib]YFIEWLKNTGPSSGAPPPS-NH2)",0.135 nM,0.312 nM,0.0092 nM
"CCCCCCCCCCCCCCCCCC(=O)N[C@@H](CCC(=O)NCCCC[C@H](NC(=O)[C@H](CCC(N)=O)NC(=O)[C@@H](NC(=O)[C@H](CO)NC(=O)[C@H](CC(C)C)NC(=O)[C@H](CC(=O)O)NC(=O)[C@H](CO)NC(=O)[C@@H](NC(=O)[C@H](Cc1ccccc1)NC(=O)[C@@H](NC(=O)CNC(=O)[C@H](CCC(=O)O)NC(=O)C(C)(C)NC(=O)[C@@H](N)Cc1ccc(O)cc1)[C@@H](C)O)[C@@H](C)O)[C@@H](C)CC)C(=O)N[C@@H](CCC(=O)O)C(=O)N[C@@H](CO)C(=O)N[C@@H](CCCCN)C(=O)N[C@@H](C)C(=O)N[C@@H](C)C(=O)NC(C)(C)C(=O)N[C@@H](CCC(=O)O)C(=O)N[C@@H](Cc1ccccc1)C(=O)N[C@H](C(=O)N[C@@H](CCC(=O)O)C(=O)N[C@@H](Cc1c[nH]c2ccccc12)C(=O)N[C@@H](CC(C)C)C(=O)N[C@@H](CCCCN)C(=O)N[C@@H](C)C(=O)NCC(=O)NCC(=O)N1CCC[C@H]1C(=O)N[C@@H](CO)C(=O)N[C@@H](CO)C(=O)NCC(=O)N[C@@H](C)C(=O)N1CCC[C@H]1C(=O)N1CCC[C@H]1C(=O)N1CCC[C@H]1C(=O)N[C@@H](CO)C(=O)N[C@@H](CCCCN)C(N)=O)[C@@H](C)CC)C(=O)O [SEQ ID NO: 16, Y-Aib-E-G-T-F-T-S-D-L-S-I-Q-K(yE-x70)-E-S-K-A-A-Aib-EFIEWLKAGGPSSGAPPPSK-NH2] (H-Y[Aib]EGTFTSDLSIQK([γGlu-Stearoyl])ESKAA[Aib]EFIEWLKAGGPSSGAPPPSK-NH2)",0.0156 nM,17 nM,0.007 nM
"CCCCCCCCCCCCCCCCCC(=O)N[C@@H](CCC(=O)NCCCC[C@H](NC(=O)[C@H](CCC(N)=O)NC(=O)[C@@H](NC(=O)[C@H](CO)NC(=O)[C@H](CC(C)C)NC(=O)[C@H](CC(=O)O)NC(=O)[C@H](CO)NC(=O)[C@@H](NC(=O)[C@H](Cc1ccccc1)NC(=O)[C@@H](NC(=O)CNC(=O)[C@H](CCC(=O)O)NC(=O)C(C)(C)NC(=O)[C@@H](N)Cc1ccc(O)cc1)[C@@H](C)O)[C@@H](C)O)[C@@H](C)CC)C(=O)N[C@@H](CCC(=O)O)C(=O)N[C@@H](CCC(=O)O)C(=O)N[C@@H](CCCNC(=N)N)C(=O)N[C@@H](C)C(=O)N[C@H](C(=O)N[C@@H](CCCNC(=N)N)C(=O)N[C@@H](CC(C)C)C(=O)N[C@@H](Cc1ccccc1)C(=O)N[C@H](C(=O)N[C@@H](CCC(=O)O)C(=O)N[C@@H](Cc1c[nH]c2ccccc12)C(=O)N[C@@H](CC(C)C)C(=O)N[C@@H](CCCCN)C(=O)N[C@@H](C)C(=O)NCC(=O)NCC(=O)N1CCC[C@H]1C(=O)N[C@@H](CO)C(=O)N[C@@H](CO)C(=O)NCC(=O)N[C@@H](C)C(=O)N1CCC[C@H]1C(=O)N1CCC[C@H]1C(=O)N1CCC[C@H]1C(=O)N[C@@H](CO)C(N)=O)[C@@H](C)CC)C(C)C)C(=O)O [SEQ ID NO: 64, Y-Aib-E-G-T-F-T-S-D-L-S-I-Q-K(yE-x70)-EERAVRLFIEWLKAGGPSSGAPPPS-NH2] (H-Y[Aib]EGTFTSDLSIQK([γGlu-Stearoyl])EERAVRLFIEWLKAGGPSSGAPPPS-NH2)",0.0096 nM,75.1 nM,–
